Tests used:
Conditions in all cases: 0.2500 kg/ha
[1] = system: Velvetleaf, Abutilon theophrasti; experiment: Preemergence herbicidal evaluation, ABUTH; assay type: in vivo, Medic.
From the text: (§1) Results of herbicide evaluation are expressed on a rating scale (0-9). The scale is based upon a visual observation of plant stand, vigor, malformation, size, chlorosis and overall plant appearance as compared with a control.
(§2) The preemergence herbicidal activity of the test compounds of the present invention is exemplified by the following tests in which the seeds of a variety of monocotyledonous and dicotyledonous plants are separately mixed with potting soil and planted on top of approximately one inch of soil in separate pint cups. After planting, the cups are sprayed with the selected aqueous acetone solution containing test compound in sufficient quantity to provide the equivalent of about 0.0156 to 0.500 kg per hectare of test compound per cup. The treated cups are then placed on greenhouse benches, watered and cared for in accordance with conventional greenhouse procedures. From four to five weeks after treatment, the tests are terminated and each cup is examined and rated according to the rating system provided in Example 185.
(§3) The compounds evaluated are reported by compound number given in Example 185.

[2] = system: Ragweed, Common, Ambrosia artemisifolia; experiment: Preemergence herbicidal evaluation, AMBEL; assay type: in vivo, L.
From the text: as §1, §2, §3

[3] = system: Sicklepod, Cassia obtusifolia; experiment: Preemergence herbicidal evaluation, CASOB; assay type: in vivo, L.
From the text: as §1, §2, §3

[4] = system: Lambsquarters, Common, Chenopodium album; experiment: Preemergence herbicidal evaluation, CHEAL; assay type: in vivo, L.
From the text: as §1, §2, §3

Galium, Galium aparine = experiment: Preemergence herbicidal evaluation, GALAP; assay type: in vivo
From the text: as §1, §2, §3

[5] = system: Morningglory, Ivyleaf, Ipomoea hederacea; experiment: Preemergence herbicidal evaluation, IPOHE; assay type: in vivo, (L.) Jacq.
From the text: as §1, §2, §3

[6] = system: Barnyardgrass, Echinochloa crus-galli; experiment: Preemergence herbicidal evaluation, ECHCG; assay type: in vivo, (L.) Beau
From the text: as §1, §2, §3

[7] = system: Foxtail, Green, Setaria viridis; experiment: Preemergence herbicidal evaluation, SETVI; assay type: in vivo, (L.) Beau
From the text: as §1, §2, §3

[8] = system: Soybean, Williams, Glycine max; experiment: Preemergence herbicidal evaluation, GLXMAW; assay type: in vivo, (L.) Merr. cv Williams
From the text: as §1, §2, §3

[9] = system: Rice, Tebonnet, Oryza sativa; experiment: Preemergence herbicidal evaluation, ORYSAT; assay type: in vivo, (L.) Tebonnet
From the text: as §1, §2, §3

[10] = system: Wheat, Winter, cv Riband, Triticum aestivum; experiment: Preemergence herbicidal evaluation, TRZAWR; assay type: in vivo
From the text: as §1, §2, §3

Corn, Field, Zea mays = experiment: Preemergence herbicidal evaluation, ZEAMX; assay type: in vivo, L.
From the text: as §1, §2, §3

For COC(=O)COc1noc2ccc(-n3c(=O)cc(C(F)(F)F)n(C)c3=O)cc12 [Compound 22, Methyl {{5-[3,6-dihydro-3-methyl-2,6-dioxo-4-(trifluoromethyl)-1(2H)-pyrimidinyl]-1,2-benzisoxazol-3-yl}oxy}acetate], which “herbicide rating (0-9)” value [1] is on record?
The value was 0.0.

And the “herbicide rating (0-9)” value [2]?
Its value is 0.0.

And the “herbicide rating (0-9)” value [3]?
The value was 9.0.

What about the “herbicide rating (0-9)” value [4] of the same compound?
The value was 0.0.

And the “herbicide rating (0-9)” value (Galium, Galium aparine)?
The value was 4.0.

And the “herbicide rating (0-9)” value [5]?
Its value is 0.0.

What about the “herbicide rating (0-9)” value [6] of the same compound?
Its value is 0.0.

What about the “herbicide rating (0-9)” value [7] of the same compound?
Its value is 0.0.

What about the “herbicide rating (0-9)” value [8] of the same compound?
The value was 2.0.

And the “herbicide rating (0-9)” value [9]?
Its value is 0.0.

And the “herbicide rating (0-9)” value [10]?
Its value is 0.0.

And the “herbicide rating (0-9)” value (Corn, Field, Zea mays)?
The value was 1.0.
